System: SEM cells
Assay: cell viability relative to DMSO control; higher = less cytotoxic
Details: 48 h
Outline: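 NOMO1, SEM and P12-Ichikawa leukemia cells spent at least four passages adapting to each medium before use. They were seeded at 500 cells/well (NOMO1, SEM) or 1000 cells/well (P12-Ichikawa) in 5 μl in 1536-well plates and pin-dosed with library compounds in DMSO at 11 threefold steps from 47 μM down to 0.79 nM. After 48 h at 37°C, CellTiter-Glo One luminescence was read. Viability is reported as a percentage of the DMSO wells on each plate, with cell-free wells as background.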

[1] = HPLM + 10% dialyzed FBS, 0.000781 µM
[2] = HPLM + 10% dialyzed FBS, 0.00234 µM
[3] = HPLM + 10% dialyzed FBS, 0.00702 µM
[4] = HPLM + 10% dialyzed FBS, 0.0211 µM
[5] = HPLM + 10% dialyzed FBS, 0.0632 µM
[6] = HPLM + 10% dialyzed FBS, 0.19 µM
[7] = HPLM + 10% dialyzed FBS, 0.569 µM
[8] = HPLM + 10% dialyzed FBS, 1.71 µM
[9] = HPLM + 10% dialyzed FBS, 5.12 µM
[10] = HPLM + 10% dialyzed FBS, 15.4 µM
[11] = HPLM + 10% dialyzed FBS, 46.1 µM
[12] = RPMI 5 mM glucose + 10% FBS, 0.000781 µM
[13] = RPMI 5 mM glucose + 10% FBS, 0.00234 µM
[14] = RPMI 5 mM glucose + 10% FBS, 0.00702 µM
[15] = RPMI 5 mM glucose + 10% FBS, 0.0211 µM
[16] = RPMI 5 mM glucose + 10% FBS, 0.0632 µM
[17] = RPMI 5 mM glucose + 10% FBS, 0.19 µM
[18] = RPMI 5 mM glucose + 10% FBS, 0.569 µM
[19] = RPMI 5 mM glucose + 10% FBS, 1.71 µM
[20] = RPMI 5 mM glucose + 10% FBS, 5.12 µM
[21] = RPMI 5 mM glucose + 10% FBS, 15.4 µM
[22] = RPMI 5 mM glucose + 10% FBS, 46.1 µM
[23] = RPMI 5 mM glucose + 10% dialyzed FBS, 0.000781 µM
[24] = RPMI 5 mM glucose + 10% dialyzed FBS, 0.00234 µM
[25] = RPMI 5 mM glucose + 10% dialyzed FBS, 0.00702 µM
[26] = RPMI 5 mM glucose + 10% dialyzed FBS, 0.0211 µM
[27] = RPMI 5 mM glucose + 10% dialyzed FBS, 0.0632 µM
[28] = RPMI 5 mM glucose + 10% dialyzed FBS, 0.19 µM
[29] = RPMI 5 mM glucose + 10% dialyzed FBS, 0.569 µM
[30] = RPMI 5 mM glucose + 10% dialyzed FBS, 1.71 µM
[31] = RPMI 5 mM glucose + 10% dialyzed FBS, 5.12 µM
[32] = RPMI 5 mM glucose + 10% dialyzed FBS, 15.4 µM
[33] = RPMI 5 mM glucose + 10% dialyzed FBS, 46.1 µM

Structure (SMILES) | cell viability [1] [%] | cell viability [2] [%] | cell viability [3] [%] | cell viability [4] [%] | cell viability [5] [%] | cell viability [6] [%] | cell viability [7] [%] | cell viability [8] [%] | cell viability [9] [%] | cell viability [10] [%] | cell viability [11] [%] | cell viability [12] [%] | cell viability [13] [%] | cell viability [14] [%] | cell viability [15] [%] | cell viability [16] [%] | cell viability [17] [%] | cell viability [18] [%] | cell viability [19] [%] | cell viability [20] [%] | cell viability [21] [%] | cell viability [22] [%] | cell viability [23] [%] | cell viability [24] [%] | cell viability [25] [%] | cell viability [26] [%] | cell viability [27] [%] | cell viability [28] [%] | cell viability [29] [%] | cell viability [30] [%] | cell viability [31] [%] | cell viability [32] [%] | cell viability [33] [%]
Cn1cc(C[C@@H](N)C(=O)O)c2ccccc21 | 92 | 105 | 95.8 | 113 | 112 | 121 | 112 | 111 | 101 | 92.3 | 76.7 | 80 | 50.1 | 79.6 | 94 | 89.8 | 96.4 | 91.1 | 97.9 | 107 | 80.9 | 62.7 | 114 | 92.1 | 102 | 106 | 97.7 | 108 | 98.8 | 97 | 102 | 96.3 | 70
C[S+](=O)([O-])c1ccc(Oc2cc(F)cc(C#N)c2)c2c1[C@H](O)C(F)(F)C2 | 73.5 | 97.9 | 101 | 101 | 108 | 105 | 103 | 106 | 111 | 106 | 87.7 | 93.8 | 117 | 152 | 140 | 138 | 155 | 144 | 156 | 141 | 158 | 124 | 76.9 | 112 | 121 | 105 | 124 | 121 | 106 | 128 | 106 | 120 | 84.9
Cc1c[nH]c(-c2cnc(NCCNc3ccc(C#N)cn3)nc2-c2ccc(Cl)cc2Cl)n1 | 62.7 | 74.5 | 62 | 65.9 | 65.2 | 70.5 | 45.3 | 71.5 | 19.6 | 26.8 | 2.9 | 74.9 | 93.6 | 70.9 | 87.6 | 85.2 | 101 | 66.9 | 86.4 | 34.9 | 68.8 | 4.99 | 70.2 | 80.9 | 59.9 | 67 | 69.6 | 72.2 | 52.9 | 84 | 24 | 33.7 | 3.76
CC(C)C[C@H](NC(=O)[C@@H](O)[C@H](N)Cc1ccccc1)C(=O)O | 86 | 122 | 121 | 131 | 136 | 119 | 114 | 128 | 120 | 114 | 10.7 | 59.2 | 122 | 127 | 123 | 133 | 115 | 118 | 121 | 109 | 117 | 8.04 | 62.3 | 119 | 136 | 135 | 129 | 123 | 127 | 132 | 131 | 116 | 13.2
C=CCc1ccc(O)c(-c2ccc(O)c(CC=C)c2)c1 | 103 | 107 | 109 | 95.3 | 120 | 112 | 105 | 56.1 | 40.6 | 40.4 | 37.6 | 78.6 | 88.8 | 93.2 | 85.1 | 93.6 | 108 | 79.1 | 20 | 14.7 | 21.4 | 17.6 | 98.8 | 101 | 109 | 89.6 | 109 | 107 | 94 | 27.2 | 20.6 | 21.4 | 24.6
NC(=O)NO | 83 | 79.5 | 89.4 | 85.6 | 93.5 | 96.1 | 80.1 | 75.2 | 31.6 | 13.8 | 2.15 | 99.3 | 89.3 | 96.1 | 94.8 | 100 | 93 | 103 | 86.1 | 37.2 | 7.56 | 1.61 | 77.9 | 79.6 | 93 | 88.4 | 96.2 | 84.4 | 95.5 | 87 | 32.3 | 5.86 | 1.96
CCOC(=O)\C1=C\[C@@H](OC(CC)CC)[C@H](NC(C)=O)[C@@H](N)C1 | 73.2 | 82.3 | 95.9 | 97.5 | 77.9 | 102 | 91.4 | 70.8 | 101 | 96.8 | 56 | 77.6 | 85.1 | 93.3 | 99.1 | 85 | 92.7 | 96.8 | 78.8 | 88.8 | 111 | 89.3 | 75.6 | 82.7 | 92.3 | 84.9 | 75.5 | 98.2 | 102 | 73.7 | 97.7 | 104 | 68.3
O=C1NC(=O)/C(=C/c2ccc(-c3ccc(F)cc3O)o2)S1 | 127 | 118 | 110 | 122 | 123 | 111 | 111 | 102 | 124 | 94.1 | 87.1 |  |  |  |  |  |  |  |  |  |  |  | 114 | 129 | 120 | 122 | 112 | 121 | 111 | 84.6 | 87.3 | 98.6 | 74.8

From the supplement of paper PMC11451515
